Laboratory results as given in patent US12011444B2, “N-substituted indole derivatives as PGE2 receptor modulators” (Idorsia Pharmaceuticals Ltd, priority 2015, dated 2024).

How the values were obtained:
EP4 = EP4 (Homo sapiens (Human), UniProt P35408); assay: hEP4 cAMP assay (BT549 breast cancer cells, HTRF cAMP); assay type: cell-based; conditions: antagonistic activity; mean values where measured multiple times
Procedure: Plate is pre-incubated 45 minutes at room temperature. Subsequently, 2.5 microliters of PGE2 (final conc. 6 nM) are transferred into the assay plate. Plate is incubated 30 minutes at room temperature.

EP2 = EP2 (Homo sapiens (Human), UniProt P43116);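 further: antagonism of PGE2-stimulated cAMP accumulation in SF295 human glioblastoma cells with endogenous EP2, cAMP read by HTRF, expressed relative to DMSO control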
PTGER2 (EP2) = PTGER2 (EP2) (Homo sapiens (Human), UniProt P43116); assay: hEP2 b-arrestin assay (PathHunter HEK 293 PTGER2 b-arrestin cells); assay type: cell-based
Procedure, shortened: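 HEK293 cells expressing ProLink-tagged EP2 and EA-fused β-arrestin 2 (enzyme fragment complementation) were seeded 24 h, pre-incubated with compound 15 min at 37 °C, then stimulated with 5 μM PGE2 (final) for 120 min.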

PTRGER4 (EP4) = PTRGER4 (EP4) (Homo sapiens (Human), UniProt P35408); assay: hEP4 b-arrestin assay (PathHunter HEK 293 PTGER4 b-arrestin cells); assay type: cell-based
Procedure, shortened: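 Stably transfected HEK293 cells carrying EP4–ProLink and β-arrestin 2–EA (β-gal fragment complementation), pre-incubated with compound 15 min at 37 °C, then stimulated with PGE2 (20 nM final) for 120 min at 37 °C. Chemiluminescence read after 1 h detection reagent at room temperature; activity per concentration expressed as percent of DMSO control.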

[1] = antagonistic activity on hEP2, mean where measured multiple times
[2] = antagonistic activity on hEP4, mean where measured multiple times
[3] = hEP2 b-arrestin assay (values without asterisk)
[4] = hEP4 b-arrestin assay (values without asterisk)

Chain of EP4 (P35408 whole entry): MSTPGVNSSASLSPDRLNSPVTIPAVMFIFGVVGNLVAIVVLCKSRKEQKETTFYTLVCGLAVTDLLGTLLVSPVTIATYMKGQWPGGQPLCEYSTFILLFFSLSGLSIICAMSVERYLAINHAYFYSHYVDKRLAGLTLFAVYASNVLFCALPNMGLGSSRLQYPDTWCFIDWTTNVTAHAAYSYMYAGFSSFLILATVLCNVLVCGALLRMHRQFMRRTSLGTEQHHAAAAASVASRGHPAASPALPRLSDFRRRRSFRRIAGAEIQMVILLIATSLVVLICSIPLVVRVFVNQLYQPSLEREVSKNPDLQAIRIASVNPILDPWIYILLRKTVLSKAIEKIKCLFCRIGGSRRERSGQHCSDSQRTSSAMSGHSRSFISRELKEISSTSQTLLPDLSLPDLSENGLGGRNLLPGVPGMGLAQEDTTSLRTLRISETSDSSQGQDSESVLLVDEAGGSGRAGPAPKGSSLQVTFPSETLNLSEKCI
Chain of PTRGER4 (EP4) (P35408 whole entry, looked up, the tested form may be a part): as the sequence (P35408 whole entry) above
Chain of EP2 (P43116 whole entry): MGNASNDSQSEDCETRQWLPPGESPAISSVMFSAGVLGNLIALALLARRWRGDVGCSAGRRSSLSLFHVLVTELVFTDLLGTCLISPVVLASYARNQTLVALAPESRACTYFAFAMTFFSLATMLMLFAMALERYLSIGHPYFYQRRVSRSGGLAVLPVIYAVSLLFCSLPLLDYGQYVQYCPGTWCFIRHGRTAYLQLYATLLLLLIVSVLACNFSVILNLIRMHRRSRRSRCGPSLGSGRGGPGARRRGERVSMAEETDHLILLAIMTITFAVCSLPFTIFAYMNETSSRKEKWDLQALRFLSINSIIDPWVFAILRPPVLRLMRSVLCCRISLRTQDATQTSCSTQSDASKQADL
Chain of PTGER2 (EP2) (P43116 whole entry, the tested form may be a part): as the sequence (P43116 whole entry) above

IC50 (EP4)	IC50 (EP2)	SMILES	further results
94 nM	7 nM	CCCc1cc(-c2cc(NCCn3c(C)cc4c(OC)cccc43)ncn2)cc(Cl)c1C(=O)O [compound 444]	–
139 nM	25 nM	COc1cc(F)cc2c1cc(C)n2CCNc1cc(-c2ccc(-c3cc(N(C)C)ncn3)cc2)ncn1 [Example 763, 6-(4-(6-((2-(6-Fluoro-4-methoxy-2-methyl-1H-indol-1-yl)ethyl)amino)pyrimidin-4-yl)phenyl)-N,N-dimethylpyrimidin-4-amine]	–
118 nM	1 nM	COc1cccc2c1cc(C)n2CCNc1cc(-c2ccc(C(=O)O)c(NCC(F)(F)F)c2)ncn1 [compound 568, 4-{6-[2-(4-Methoxy-2-methyl-indol-1-yl)-ethylamino]-pyrimidin-4-yl}-2-(2,2,2-trifluoro-ethylamino)-benzoic acid]	–
17 nM	2 nM	CCNc1cc(-c2cc(NCCn3c(C)cc4c(OC)cccc43)ncn2)ccc1-c1nnn[nH]1 [compound 667, {6-[3-Ethylamino-4-(1H-tetrazol-5-yl)-phenyl]-pyrimidin-4-yl}-[2-(4-methoxy-2-methyl-indol-1-yl)-ethyl]-amine]	–
425 nM	81 nM	COc1cc(-c2ccc(-c3cc(NCCn4c(C)cc5c(OC)cc(F)cc54)ncn3)cc2)ncn1 [Example 749, [2-(6-Fluoro-4-methoxy-2-methyl-indol-1-yl)-ethyl]-{6-[4-(6-methoxy-pyrimidin-4-yl)-phenyl]-pyrimidin-4-yl}-amine]	–
64 nM	7 nM	COc1cc(F)cc2c1cc(C)n2CCNc1cc(-c2cc(Cl)c(C(=O)O)c(OCC(C)C)c2)ncn1 [compound 692]	–
130 nM	24 nM	CCCc1cc(-c2cc(NCCn3c(C)cc4c(OC)ccc(Cl)c43)ncn2)cc(Cl)c1C(=O)O [compound 513]	–
196 nM	13 nM	CCOc1cc(-c2cc(NCCn3c(C)cc4c(OC)cccc43)ncn2)cc(Cl)c1C(=O)O [compound 599]	–
40 nM	7 nM	CCNc1cc(-c2cc(NCCn3c(C)cc4c(OC)ccc(Cl)c43)ncn2)ccc1-c1nnn[nH]1 [compound 666, [2-(7-Chloro-4-methoxy-2-methyl-indol-1-yl)-ethyl]-{6-[3-ethylamino-4-(1H-tetrazol-5-yl)-phenyl]-pyrimidin-4-yl}-amine]	–
136 nM	60 nM	COc1ccc(F)c2c1cc(C)n2CCNc1cc(-c2ccc(-c3oc(CCC(=O)O)nc3C)cc2)ncn1 [compound 652]	–
958 nM	72 nM	Cc1cc(-c2ccc(-c3cc(NCCn4c(C)cc5c(C)ccc(F)c54)ncn3)cc2)on1 [compound 714]	–
134 nM	8 nM	CCCCOc1cc(-c2cc(NCCn3c(C)cc4c(C)cc(F)cc43)ncn2)ccc1C(=O)O [compound 527]	–
57 nM	34 nM	COc1cc(F)c(F)c2c1cc(C)n2CCNc1cc(-c2ccc(C(=O)O)c(CC(C)C)c2)ncn1 [compound 621]	–
304 nM	98 nM	COc1cc(F)cc2c1cc(C)n2CCNc1cc(-c2ccc(-c3ncc(F)cn3)cc2)ncn1 [Example 762, [2-(6-Fluoro-4-methoxy-2-methyl-indol-1-yl)-ethyl]-{6-[4-(5-fluoro-pyrimidin-2-yl)-phenyl]-pyrimidin-4-yl}-amine]	–
219 nM	70 nM	CCOc1cc(-c2cc(NCCn3c(C)cc4c(OC)ccc(Cl)c43)ncn2)cc(Cl)c1C(=O)O [compound 488]	–
33 nM	61 nM	CCCOc1cc(-c2cc(NCCn3c(C)cc4c(OC)cc(F)c(F)c43)ncn2)cc(Cl)c1C(=O)O [compound 638]	–
547 nM	359 nM	CCOc1cc(-c2cc(NCCn3c(C)cc4c(C)ccc(F)c43)ncn2)ccc1CNCCOC [compound 562]	–
15 nM	41 nM	COc1cc(F)cc2c1cc(C#N)n2CCNc1cc(-c2ccc(C(=O)O)c(CC(C)C)c2)ncn1 [compound 603]	–
399 nM	39 nM	COc1cc(F)cc2c1cc(C)n2CCNc1cc(-c2ccc(-c3oncc3C)cc2)ncn1 [compound 736, [2-(6-Fluoro-4-methoxy-2-methyl-indol-1-yl)-ethyl]-{6-[4-(4-methyl-isoxazol-5-yl)-phenyl]-pyrimidin-4-yl}-amine]	–
217 nM	21 nM	CCCOc1cc(-c2cc(NCCn3c(C)cc4c(C)cc(Cl)cc43)ncn2)cc(Cl)c1C(=O)O [compound 522]	–
80 nM	21 nM	COc1cc(F)cc2c1cc(C)n2CCNc1cc(-c2ccc3c(ccn3C)c2)ncn1 [compound 705, [2-(6-Fluoro-4-methoxy-2-methyl-indol-1-yl)-ethyl]-[6-(1-methyl-1H-indol-5-yl)-pyrimidin-4-yl]-amine]	–

IC50 (EP4)	IC50 (EP2)	SMILES	further results
7 nM	4 nM	COc1ccc(F)c2c1cc(C)n2CCNc1cc(-c2cc(OC(C)C)c(C(=O)O)s2)ncn1 [compound 675]	–
148 nM	39 nM	COc1ccc(F)c2c1cc(C)n2CCNc1cc(-c2ccc(-c3cncn3C)cc2)ncn1 [compound 584]	–
92 nM	2 nM	COc1ccc(F)c2c1cc(C)n2CCNc1cc(-c2ccc(C(=O)O)c(NCC(F)(F)F)c2)ncn1 [compound 588, 4-{6-[2-(7-Fluoro-4-methoxy-2-methyl-indol-1-yl)-ethylamino]-pyrimidin-4-yl}-2-(2,2,2-trifluoro-ethylamino)-benzoic acid]	–
168 nM	11 nM	CCCOc1cc(-c2cc(NCCn3c(C)cc4c(OC)cccc43)ncn2)cc(Cl)c1C(=O)O [compound 497]	–
637 nM	4 nM	Cc1cc2ccccc2n1CCNc1cc(-c2ccc3c(=O)[nH]oc3c2)ncn1 [Example 774, 6-{6-[2-(2-Methyl-indol-1-yl)-ethylamino]-pyrimidin-4-yl}-benzo[d]isoxazol-3-one]	–
39 nM	13 nM	CNc1nnc(-c2ccc(-c3cc(NCCn4c(C)cc5c(C)cc(F)cc54)ncn3)cc2)s1 [compound 592]	–
342 nM	60 nM	Cc1cc(Cl)cc2c1cc(C)n2CCNc1cc(-c2ccc(C(=O)O)c(CC(C)C)c2)ncn1 [compound 421]	–
3 nM	1 nM	CCCCOc1cc(-c2cc(NCCn3c(C)cc4c(OC)cc(F)cc43)ncn2)sc1C(=O)O [compound 672]	–
234 nM	20 nM	Cc1cc(F)cc2c1cc(C)n2CCNc1cc(-c2cc(Cl)c(C(=O)O)c(OCC(C)C)c2)ncn1 [compound 693]	–
208 nM	33 nM	COc1ccc(F)c2c1cc(C)n2CCNc1cc(-c2ccc(-c3nnc(C)o3)cc2)ncn1 [compound 574]	–
521 nM	73 nM	CCCc1cc(-c2cc(NCCn3c(C)cc4cc(Cl)cc(F)c43)ncn2)cc(F)c1C(=O)O [compound 425]	–
267 nM	73 nM	Cc1cc(-c2ccc(-c3cc(NCCn4c(C)cc5c(C)cc(F)cc54)ncn3)cc2)on1 [compound 713]	–
–	–	COc1cccc2c1cc(C)n2CCNc1cc(-c2ccc(-c3nnc[nH]3)cc2)ncn1 [compound 100, [2-(4-Methoxy-2-methyl-indol-1-yl)-ethyl]-{6-[4-(4H-[1,2,4]triazol-3-yl)-phenyl]-pyrimidin-4-yl}-amine]	IC50 (PTGER2 (EP2); [1]): 11 nM; IC50 (PTRGER4 (EP4); [2]): 202 nM
–	–	CCOc1cc(-c2cc(NCCn3c(C)cc4c(OC)ccc(F)c43)ncn2)sc1C(=N)NO [Example 1052, 3-Ethoxy-5-{6-[2-(7-fluoro-4-methoxy-2-methyl-indol-1-yl)-ethylamino]-pyrimidin-4-yl}-N-hydroxy-thiophene-2-carboxamidine]	IC50 (PTGER2 (EP2); [3]): 3 nM; IC50 (PTRGER4 (EP4); [4]): 7 nM
–	–	CCOc1cc(-c2cc(NCCn3c(C)cc4cc(F)c(F)c(F)c43)ncn2)sc1C(=O)O [compound 273]	IC50 (PTGER2 (EP2); [1]): 1 nM; IC50 (PTRGER4 (EP4); [2]): 67 nM
–	–	COc1cc(-c2cc(NCCn3c(C)cc4c(OC)cccc43)ncn2)cc(C)c1C(=O)O [compound 254]	IC50 (PTGER2 (EP2); [1]): 64 nM; IC50 (PTRGER4 (EP4); [2]): 999 nM
–	–	COc1ccc(Cl)c2c1cc(C)n2CCNc1cc(-c2ccc3[nH]cnc3c2)ncn1 [compound 56]	IC50 (PTGER2 (EP2); [1]): 151 nM; IC50 (PTRGER4 (EP4); [2]): 698 nM
–	–	COc1ccc(F)c2c1cc(C#N)n2CCNc1cc(-c2cc(OC(C)C)c(C(=O)O)s2)ncn1 [Example 802, 5-{6-[2-(2-Cyano-7-fluoro-4-methoxy-indol-1-yl)-ethylamino]-pyrimidin-4-yl}-3-isopropoxy-thiophene-2-carboxylic acid]	IC50 (PTGER2 (EP2); [3]): 7 nM; IC50 (PTRGER4 (EP4); [4]): 1 nM
–	–	COc1ccc(F)c2c1cc(C)n2CCNc1cc(-c2ccc(CO)c(F)c2)ncn1 [compound 28, (2-Fluoro-4-{6-[2-(7-fluoro-4-methoxy-2-methyl-indol-1-yl)-ethylamino]-pyrimidin-4-yl}-phenyl)-methanol]	IC50 (PTGER2 (EP2); [1]): 17 nM; IC50 (PTRGER4 (EP4); [2]): 249 nM
–	–	COCCNC(=O)c1ccc(-c2cc(NCCn3c(C#N)cc4c(OC)ccc(F)c43)ncn2)cc1 [Example 996, 4-{6-[2-(2-Cyano-7-fluoro-4-methoxy-indol-1-yl)-ethylamino]-pyrimidin-4-yl}-N-(2-methoxy-ethyl)-benzamide]	IC50 (PTGER2 (EP2); [3]): 39 nM; IC50 (PTRGER4 (EP4); [4]): 99 nM

SMILES	IC50 (EP4)	IC50 (EP2)	further results
COc1ccc(F)c2c1cc(C)n2CCNc1cc(-c2ccc(C(=O)O)c(OC3CCC3)c2)ncn1 [compound 472, 2-Cyclobutoxy-4-{6-[2-(7-fluoro-4-methoxy-2-methyl-indol-1-yl)-ethylamino]-pyrimidin-4-yl}-benzoic acid]	66 nM	5 nM	–
